Reference: patent US20170008888A1 (KYORIN PHARMACEUTICAL CO., LTD., priority 2014, published 2017)
Where two headings read alike, the source gives them in different places.

Tests used:
Format in all cases: binding
[1] = target: T1, JAK1 (Homo sapiens, UniProt P23458); assay: Probe-based (AX9989) kinase profiling in Jurkat lysate: JAK1
T1 construct: screened for activity against several kinases in Jurkat cells; endogenous in cells; host or cells: Jurkat cell lysate
Procedure, shortened: (§1)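 Gel-filtered Jurkat lysate (HEPES pH 7.5, 20 mM MnCl2, 5 mg/ml) was pre-incubated 15 min with compound at room temperature, then labelled with 5 μM acyl-phosphate ATP probe AX9989. Tryptic probe-labelled active-site peptides were streptavidin-captured and quantified by LC/MS. Percent inhibition reflected the decrease in labelled-peptide intensity versus no compound.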

[2] = tested on: ABL or ARG; assay: Probe-based (AX9989) kinase profiling in Jurkat lysate: ABL or ARG; settings: for ABL or ARG Inhibition % at indicated screening concentration: screening concentration 1 μM
Procedure, shortened: as §1

[3] = target: T2, TAO2 (Homo sapiens, UniProt Q9UL54); assay: Probe-based (AX9989) kinase profiling in Jurkat lysate: TAO2
T2 construct: screened for activity against several kinases in Jurkat cells; endogenous in cells; host or cells: Jurkat cell lysate
T2 sequence (Q9UL54 1-1235): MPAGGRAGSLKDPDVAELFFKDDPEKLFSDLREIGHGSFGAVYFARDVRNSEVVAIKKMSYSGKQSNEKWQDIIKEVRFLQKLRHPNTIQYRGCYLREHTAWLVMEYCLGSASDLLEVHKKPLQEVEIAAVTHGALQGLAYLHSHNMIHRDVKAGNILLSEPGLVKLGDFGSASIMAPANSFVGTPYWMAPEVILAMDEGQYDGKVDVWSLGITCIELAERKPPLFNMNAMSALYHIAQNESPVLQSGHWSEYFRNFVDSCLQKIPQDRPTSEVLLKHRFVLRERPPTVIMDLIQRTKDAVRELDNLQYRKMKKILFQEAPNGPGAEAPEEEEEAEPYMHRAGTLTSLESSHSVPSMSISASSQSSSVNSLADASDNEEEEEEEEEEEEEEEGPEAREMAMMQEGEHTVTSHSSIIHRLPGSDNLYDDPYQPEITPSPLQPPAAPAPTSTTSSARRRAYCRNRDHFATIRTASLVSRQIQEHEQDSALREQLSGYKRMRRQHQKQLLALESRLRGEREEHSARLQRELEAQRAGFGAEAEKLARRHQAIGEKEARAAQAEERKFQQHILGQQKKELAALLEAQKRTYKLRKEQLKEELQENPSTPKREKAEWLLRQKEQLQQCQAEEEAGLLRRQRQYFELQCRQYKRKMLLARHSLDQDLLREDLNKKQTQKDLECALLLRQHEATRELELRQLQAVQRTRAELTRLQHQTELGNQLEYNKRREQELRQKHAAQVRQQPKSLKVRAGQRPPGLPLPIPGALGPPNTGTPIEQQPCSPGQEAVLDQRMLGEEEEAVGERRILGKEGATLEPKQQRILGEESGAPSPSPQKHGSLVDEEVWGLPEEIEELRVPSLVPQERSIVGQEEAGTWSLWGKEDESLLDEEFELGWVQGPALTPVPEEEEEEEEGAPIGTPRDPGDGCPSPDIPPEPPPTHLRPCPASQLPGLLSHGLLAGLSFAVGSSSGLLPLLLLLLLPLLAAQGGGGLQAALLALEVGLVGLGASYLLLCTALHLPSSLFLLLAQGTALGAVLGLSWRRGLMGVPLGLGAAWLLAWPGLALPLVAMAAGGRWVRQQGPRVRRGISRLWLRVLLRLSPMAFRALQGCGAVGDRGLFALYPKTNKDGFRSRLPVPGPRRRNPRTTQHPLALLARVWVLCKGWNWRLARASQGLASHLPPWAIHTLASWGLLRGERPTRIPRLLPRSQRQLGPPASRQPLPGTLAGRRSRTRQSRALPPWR
Procedure, shortened: as §1

[4] = tested on: AMPKa1 or AMPKa2; assay: Probe-based (AX9989) kinase profiling in Jurkat lysate: AMPKa1 or AMPKa2; settings: for AMPKa1 or AMPKa2 Inhibition % at indicated screening concentration: screening concentration 1 μM
Procedure, shortened: as §1

[5] = target: T3, ERK5 (Homo sapiens, UniProt Q13164); assay: Probe-based (AX9989 acyl phosphate ATP probe) kinase profiling in Jurkat lysate: ERK5; settings: for IC50: Jurkat lysate
T3 construct: screened for activity against several kinases in Jurkat cells; endogenous in cells; host or cells: Jurkat cell lysate
T3 sequence (Q13164 whole entry): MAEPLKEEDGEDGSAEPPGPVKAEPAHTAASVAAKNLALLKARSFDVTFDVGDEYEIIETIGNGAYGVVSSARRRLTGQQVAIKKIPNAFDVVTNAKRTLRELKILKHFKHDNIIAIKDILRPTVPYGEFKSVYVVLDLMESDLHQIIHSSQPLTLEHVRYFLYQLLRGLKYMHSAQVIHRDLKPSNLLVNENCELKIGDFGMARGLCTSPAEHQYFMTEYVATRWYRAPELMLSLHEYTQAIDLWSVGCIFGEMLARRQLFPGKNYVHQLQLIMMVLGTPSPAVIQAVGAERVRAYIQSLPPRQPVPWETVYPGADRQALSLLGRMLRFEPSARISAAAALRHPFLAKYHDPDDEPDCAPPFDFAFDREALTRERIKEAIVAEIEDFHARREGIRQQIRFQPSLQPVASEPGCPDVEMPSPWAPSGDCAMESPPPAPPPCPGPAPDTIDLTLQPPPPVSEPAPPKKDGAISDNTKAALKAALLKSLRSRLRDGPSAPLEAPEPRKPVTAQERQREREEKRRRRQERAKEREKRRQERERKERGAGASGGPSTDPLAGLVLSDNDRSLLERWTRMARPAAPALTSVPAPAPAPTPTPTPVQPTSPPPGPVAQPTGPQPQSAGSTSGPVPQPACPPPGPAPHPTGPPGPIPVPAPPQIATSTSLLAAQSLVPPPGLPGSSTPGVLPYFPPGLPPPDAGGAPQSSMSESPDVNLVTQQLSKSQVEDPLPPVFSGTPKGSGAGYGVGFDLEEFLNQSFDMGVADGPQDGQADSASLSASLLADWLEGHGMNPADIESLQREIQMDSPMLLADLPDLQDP
Procedure, shortened: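 Gel-filtered Jurkat lysate (5 mg/ml, 20 mM MnCl2) preincubated 15 min at room temperature with compound, then labelled with 5 μM AX9989 acyl phosphate ATP probe. Probe-labelled ERK5 active-site peptides quantified by LC/MS after trypsin digestion and streptavidin capture; IC50 calculated from percent inhibition at the screening concentration.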

[6] = target: T4, AurA (Homo sapiens, UniProt O14965); assay: Probe-based (AX9989) kinase profiling in Jurkat lysate: AurA
T4 construct: screened for activity against several kinases in Jurkat cells; endogenous in cells; host or cells: Jurkat cell lysate
T4 sequence (O14965 1-403): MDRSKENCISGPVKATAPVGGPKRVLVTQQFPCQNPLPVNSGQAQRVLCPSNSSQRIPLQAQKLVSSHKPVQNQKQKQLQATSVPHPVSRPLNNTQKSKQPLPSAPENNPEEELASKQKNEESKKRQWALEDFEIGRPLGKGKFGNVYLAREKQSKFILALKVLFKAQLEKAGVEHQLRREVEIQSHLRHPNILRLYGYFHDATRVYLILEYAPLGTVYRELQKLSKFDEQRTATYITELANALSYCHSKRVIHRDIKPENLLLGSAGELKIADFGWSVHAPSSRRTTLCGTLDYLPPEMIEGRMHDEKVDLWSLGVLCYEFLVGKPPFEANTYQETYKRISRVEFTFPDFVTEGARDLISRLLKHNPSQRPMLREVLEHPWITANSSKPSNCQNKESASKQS
Procedure, shortened: as §1

[7] = screening concentration 1.0 μM, read-out: Kinase inhibition % at indicated screening concentration: JAK1
[8] = screening concentration 1.0 μM, read-out: Kinase inhibition % at indicated screening concentration: TAO2
[9] = calculated from percent inhibition of AX9989 labeling and the screening concentration
[10] = screening concentration 1.0 μM, read-out: Kinase inhibition % at indicated screening concentration: ERK5
[11] = screening concentration 1.0 μM, read-out: Kinase inhibition % at indicated screening concentration: AurA
[12] = screening concentration 1 μM, read-out: JAK1 Inhibition % at indicated screening concentration
[13] = screening concentration 1 μM, read-out: TAO2 Inhibition % at indicated screening concentration
[14] = calculated from percent inhibition and screening concentration, AX9989 probe
[15] = screening concentration 1 μM, read-out: ERK5 Inhibition % at indicated screening concentration
[16] = screening concentration 1 μM, read-out: AurA Inhibition % at indicated screening concentration

T1 sequence (P23458 whole entry): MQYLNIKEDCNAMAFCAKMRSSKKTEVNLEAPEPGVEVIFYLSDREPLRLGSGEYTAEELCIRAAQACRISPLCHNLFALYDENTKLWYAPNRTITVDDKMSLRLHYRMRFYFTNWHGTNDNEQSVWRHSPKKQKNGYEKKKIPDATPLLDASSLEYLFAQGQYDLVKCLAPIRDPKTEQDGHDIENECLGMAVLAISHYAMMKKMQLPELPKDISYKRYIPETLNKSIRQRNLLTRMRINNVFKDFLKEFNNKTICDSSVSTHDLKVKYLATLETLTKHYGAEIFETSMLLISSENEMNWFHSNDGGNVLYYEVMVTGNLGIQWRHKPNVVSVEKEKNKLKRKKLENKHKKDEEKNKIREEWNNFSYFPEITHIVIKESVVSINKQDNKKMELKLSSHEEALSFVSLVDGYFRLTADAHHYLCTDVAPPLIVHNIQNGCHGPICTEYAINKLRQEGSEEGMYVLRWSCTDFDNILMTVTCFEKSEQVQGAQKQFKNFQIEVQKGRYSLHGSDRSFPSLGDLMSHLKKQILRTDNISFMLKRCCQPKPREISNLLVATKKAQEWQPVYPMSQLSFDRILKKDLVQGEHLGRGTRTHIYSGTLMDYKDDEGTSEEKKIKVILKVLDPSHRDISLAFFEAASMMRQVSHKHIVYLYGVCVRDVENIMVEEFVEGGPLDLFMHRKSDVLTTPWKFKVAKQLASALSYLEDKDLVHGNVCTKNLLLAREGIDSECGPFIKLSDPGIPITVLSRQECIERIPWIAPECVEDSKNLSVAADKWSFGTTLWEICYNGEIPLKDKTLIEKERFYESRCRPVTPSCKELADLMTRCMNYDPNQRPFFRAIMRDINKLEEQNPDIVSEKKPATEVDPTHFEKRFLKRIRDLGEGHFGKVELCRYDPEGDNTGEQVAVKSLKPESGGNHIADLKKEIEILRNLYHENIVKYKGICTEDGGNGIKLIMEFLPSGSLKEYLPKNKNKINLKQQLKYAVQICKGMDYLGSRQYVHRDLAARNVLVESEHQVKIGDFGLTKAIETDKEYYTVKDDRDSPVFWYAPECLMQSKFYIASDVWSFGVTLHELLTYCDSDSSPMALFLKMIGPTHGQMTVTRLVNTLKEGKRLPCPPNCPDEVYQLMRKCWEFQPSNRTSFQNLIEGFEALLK

SMILES	inhibition at 1 µM [1, 7]	Kinase inhibition % at indicated screening concentration: ABL or ARG ([2]; screening concentration 1.0 μM)	inhibition at 1 µM [3, 8]	Kinase inhibition % at indicated screening concentration: AMPKa1 or AMPKa2 ([4]; screening concentration 1.0 μM)	IC50 [5, 9]	inhibition at 1 µM [5, 10]	inhibition at 1 µM [6, 11]	inhibition at 1 µM [1, 12]	ABL or ARG Inhibition % at indicated screening concentration [2]	inhibition at 1 µM [3, 13]	AMPKa1 or AMPKa2 Inhibition % at indicated screening concentration [4]	IC50 [5, 14]	inhibition at 1 µM [5, 15]	inhibition at 1 µM [6, 16]	inhibition at 0.1 µM ([1]; screening concentration 0.1 μM, read-out: Kinase inhibition % at indicated screening concentration: JAK1)	Kinase inhibition % at indicated screening concentration: ABL or ARG ([2]; screening concentration 0.1 μM)	inhibition at 0.1 µM ([3]; screening concentration 0.1 μM, read-out: Kinase inhibition % at indicated screening concentration: TAO2)	Kinase inhibition % at indicated screening concentration: AMPKa1 or AMPKa2 ([4]; screening concentration 0.1 μM)	inhibition at 0.1 µM ([5]; screening concentration 0.1 μM, read-out: Kinase inhibition % at indicated screening concentration: ERK5)	inhibition at 0.1 µM ([6]; screening concentration 0.1 μM, read-out: Kinase inhibition % at indicated screening concentration: AurA)
CCOc1cc(C(=O)N2CCC(N3CCN(C)CC3)CC2)ccc1Nc1cc2c(cn1)N(C)C(=O)c1ccccc1N2C [Compound 61]	≤ 35%	E (E is ≦35%)	≤ 35%	E (E is ≦35%)	50 to 100 nM	> 90%	≤ 35%													
CCOc1cc(C(=O)N2CC[C@H](N(C)C)C2)ccc1Nc1cc2c(cn1)N(C)C(=O)c1ccccc1N2C [Compound 75]	≤ 35%	E (E is ≦35%)	≤ 35%	E (E is ≦35%)	≤ 50 nM	> 90%	≤ 35%													
CCOc1cc(C(=O)N2CCN(CC3CC3)CC2)ccc1Nc1cc2c(cn1)N(C)C(=O)c1ccccc1N2C [Compound 10]					≤ 50 nM										≤ 35%	E (E is ≦35%)	≤ 35%	E (E is ≦35%)	75 to 90%	≤ 35%

More lines, now with the values ahead:

inhibition at 1 µM [1, 7]	Kinase inhibition % at indicated screening concentration: ABL or ARG ([2]; screening concentration 1.0 μM)	inhibition at 1 µM [3, 8]	Kinase inhibition % at indicated screening concentration: AMPKa1 or AMPKa2 ([4]; screening concentration 1.0 μM)	IC50 [5, 9]	inhibition at 1 µM [5, 10]	inhibition at 1 µM [6, 11]	inhibition at 1 µM [1, 12]	ABL or ARG Inhibition % at indicated screening concentration [2]	inhibition at 1 µM [3, 13]	AMPKa1 or AMPKa2 Inhibition % at indicated screening concentration [4]	IC50 [5, 14]	inhibition at 1 µM [5, 15]	inhibition at 1 µM [6, 16]	inhibition at 0.1 µM ([1]; screening concentration 0.1 μM, read-out: Kinase inhibition % at indicated screening concentration: JAK1)	Kinase inhibition % at indicated screening concentration: ABL or ARG ([2]; screening concentration 0.1 μM)	inhibition at 0.1 µM ([3]; screening concentration 0.1 μM, read-out: Kinase inhibition % at indicated screening concentration: TAO2)	Kinase inhibition % at indicated screening concentration: AMPKa1 or AMPKa2 ([4]; screening concentration 0.1 μM)	inhibition at 0.1 µM ([5]; screening concentration 0.1 μM, read-out: Kinase inhibition % at indicated screening concentration: ERK5)	inhibition at 0.1 µM ([6]; screening concentration 0.1 μM, read-out: Kinase inhibition % at indicated screening concentration: AurA)	SMILES
							≤ 35%	E (E is ≦35%)	≤ 35%	E (E is ≦35%)	≤ 50 nM	> 90%	≤ 35%							CCOc1cc(C(=O)N2CCC(N3CC[C@@H](O)C3)CC2)ccc1Nc1cc2c(cn1)N(C)C(=O)c1ccccc1N2C [Compound T10]
							≤ 35%	E (E is ≦35%)	≤ 35%	E (E is ≦35%)	≤ 50 nM	> 90%	≤ 35%							CCOc1cc(C(=O)N2CCN(CCN3CCOCC3)CC2)ccc1Nc1cc2c(cn1)N(C)C(=O)c1ccccc1N2C [Compound T15]
							≤ 35%	E (E is ≦35%)	≤ 35%	E (E is ≦35%)	≤ 50 nM	> 90%	≤ 35%							CCOc1cc(C(=O)N2CCC(N3CCCN(C)CC3)CC2)ccc1Nc1cc2c(cn1)N(C)C(=O)c1ccccc1N2C [Compound T31]
							≤ 35%	E (E is ≦35%)	≤ 35%	E (E is ≦35%)	≤ 50 nM	> 90%	≤ 35%							CCOc1cc(C(=O)N2C[C@H]3CCN[C@H]3C2)ccc1Nc1cc2c(cn1)N(C)C(=O)c1ccccc1N2C [Compound T5]
